Results on 43 compounds are retold here after patent US12692274B2, “Tetrahydroisoquinoline derivatives for the treatment of red blood disorders and inflammatory diseases” (Sanofi, priority 2020, dated 2026).

Where “and” joins values, the source holds several entries; their conditions need not be identical. Identical values can stand only once.

Chain of HIS-Keap1 full length / Biotin-Nrf2 (16-mer) (Q14145 whole entry): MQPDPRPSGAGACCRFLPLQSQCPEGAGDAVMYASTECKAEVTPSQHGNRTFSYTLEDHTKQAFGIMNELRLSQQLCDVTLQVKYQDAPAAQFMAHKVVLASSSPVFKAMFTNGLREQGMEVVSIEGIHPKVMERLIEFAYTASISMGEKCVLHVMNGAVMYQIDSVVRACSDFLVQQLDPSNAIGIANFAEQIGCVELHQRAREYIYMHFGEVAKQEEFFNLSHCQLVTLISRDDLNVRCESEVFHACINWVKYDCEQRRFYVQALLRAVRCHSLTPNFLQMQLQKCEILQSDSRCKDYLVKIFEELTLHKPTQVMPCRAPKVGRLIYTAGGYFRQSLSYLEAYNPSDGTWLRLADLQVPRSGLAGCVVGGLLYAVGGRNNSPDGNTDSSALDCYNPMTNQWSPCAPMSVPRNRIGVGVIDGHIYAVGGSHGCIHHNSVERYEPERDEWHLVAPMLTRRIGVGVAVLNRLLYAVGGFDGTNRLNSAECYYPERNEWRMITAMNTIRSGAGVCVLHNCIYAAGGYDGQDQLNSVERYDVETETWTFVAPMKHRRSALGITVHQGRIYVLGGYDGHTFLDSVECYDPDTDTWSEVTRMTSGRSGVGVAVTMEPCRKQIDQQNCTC

For one assay, the system named is NQO1 activation in BEAS-2B cells. In words: BEAS-2B cellular MTT assay of NQO1 activation, 0% HSA. The format is cell-based. The following applies: Homo sapiens, serum free, read-out: BEAS EC50 (nM) serum free. The procedure:
(§1) The growth rate of the BEAS-2B cells changed based on the lot of BEGM SingleQuots in the BEGM media. The cell growth rate was determined for each lot of SingleQuots. Ideally, cells were thawed into media with the new lot of SingleQuots and grown for two passages before testing; however, growing an active culture in the new lot of media for two to three passages before testing was also acceptable. Until the cell growth rate was determined, cells were seeded at different densities (cells/cm^2) in multiple tissue culture flasks in order to avoid the cells becoming more than 70% confluent. Cells should not go above 70% confluent as the cells differentiate when they become confluent. After the cells were grown in the new lot of media as described above, the number of cells per well needed to seed in the collagen plates was determined by seeding different numbers of cells per well and incubating for 48 hours. Cell confluency was checked after 48 hours and a cell number that results in just below to just above confluency was chosen for future plate seeding. Cell confluency in the assay plate was 95-100% confluent after 48 hours.
(§2) Cell media consists of BEBM basal media with the BEGM SingleQuots added. SingleQuots vials were thawed in the tissue culture hood, and GA-1000 (Gentamicin-Amphotericin) was not added.
(§3) If complete media was to be used immediately, BEBM basal media was warmed to room temperature in the hood, but not as high as 37° C. When the media was made for future use, SingleQuots were added to cold BEBM. One at a time, the SingleQuots components (except GA-1000) were added to the BEBM media. After removal of each component from the vial, the vial was rinsed with 0.5-1 mL of BEBM (depending on the volume the vial could hold) and added to the bottle of BEBM. Once all components were added, the label that comes with the SingleQuots kit was put on the bottle of media and the date was recorded. The bottle of media was mixed by gentle shaking. The media was not filtered. This media was stored at 4° C., with any leftover media disposed of one month after the date the SingleQuots were added.
(§4) BEAS-2B Cell Splitting Protocol:
(§5) First, Trypsin was warmed to 37° C. in the water bath. The media was then warmed to room temperature by letting it sit in the tissue culture hood, but not as high as 37° C. The media was aspirated from flask(s) and the flask(s) were washed with PBS. From 1 to 1.5 mL of warm trypsin were added to each flask and incubated at 37° C. until cells came off the flask on their own (~8-10 minutes), with no vigorous tapping on the flask to detach the cells.
(§6) Media was added to each flask to a total volume of 8-10 mL per flask and transferred to 15 mL conical tube(s). The cells were spun down at 120 g for 5 minutes, level 5 brake. The cells can be spun down between 100 and 150 g. Next the media was aspirated and the cell pellet was resuspended in fresh media by pipetting up and down and flicking the tube side to side. Any clumps of cells that remained were allowed to settle to the bottom of the tube before the top suspension was transferred into another tube, leaving about 1 mL of media in the original tube. The 1 mL of media and cell clumps were mixed with a single channel p1000 pipette, and any remaining clumps were removed before adding the cells in suspension to the other tube. The suspension was mixed with a pipette, an aliquot was removed, and the cells were counted. The amount of cells/cm^2 desired was calculated and the required volume of cells was added to tissue culture flasks. For example, use of SingleQuots with ~6000 cells/cm^2 was appropriate for a three day incubation and ~3000 cells/cm^2 for a five day incubation. Optimal cell density differed depending on lot of SingleQuots. The flasks were incubated at 37° C. in 5% CO2.
(§7) Day One: Seeding BEAS-2B Cells in Collagen Plates:
(§8) Plate(s) were either seeded with 0.3% or 0% HSA. While the protocol was similar for both conditions any differences are noted herein below. […]
As for `O=C(O)CC1c2ccc3c(c2)CN(CC3)C(=O)c2ccc(cc2)OCCCCCn2nnc3cc1ccc32` (centres unmarked) [Compound 334], the EC50 was 547 nM. On to `Cc1c2ccc3c1nnn3CCOCCCOc1ccc(c(F)c1)C(=O)N1CCc3ccc(cc3C1)C2CC(=O)O` (centres unmarked) [Compound 382], for which the EC50 worked out at 86.2 nM.

The same assay, now with this note: serum free, read-out: BEAS EC50 (nM) serum free.
`Cc1c2ccc3c1nnn3CCOCCCOc1ccc(c(F)c1)C(=O)N1CCc3ccc(cc3C1)C2CC(=O)O` (centres unmarked) [Compound 382]: the EC50 was found to be 125 nM.

The test system is the same in a further assay. Briefly: BEAS-2B cellular MTT assay of NQO1 activation, 0.3% HSA. The following applies: BEAS+, read-out: BEAS+ EC50. Format: cell-based. As for the experimental part:
as §1, §2, §3, §4, §5, §6, §7, §8
Take `Cc1c2ccc3c1nnn3CCOCCCOc1ccc(c(F)c1)C(=O)N1CCc3ccc(cc3C1)C2CC(=O)O` (centres unmarked) [Compound 382]: the EC50 was found to be 136 nM.

The assay is the same for the next values; noted with them: Homo sapiens, BEAS+, read-out: BEAS+ EC50.
For `O=C(O)CC1c2ccc3c(c2)CN(CC3)C(=O)c2ccc(cc2)OCCCCCn2nnc3cc1ccc32` (centres unmarked) [Compound 334], the EC50 was found to be 898 nM. On the same count and under the same terms, to `Cc1c2ccc3c1nnn3CCOCCCOc1ccc(c(F)c1)C(=O)N1CCc3ccc(cc3C1)C2CC(=O)O` (centres unmarked) [Compound 382] belongs 169 nM.

Another assay has as its target HIS-Keap1 full length / Biotin-Nrf2 (16-mer) (Homo sapiens, UniProt Q14145). Briefly: biochemical.
Details: not given
In the case of `O=C(O)CC1c2ccc3c(c2)CN(CC3)C(=O)c2ccc(cc2)OCC=CCn2nnc3cc1ccc32` (mixture of isomers) [Compound 419, 2-[(12E)-20-oxo-15-oxa-8,9,10,21-tetrazahexacyclo[19.5.3.216,19.13,7.06,10.024,28]dotriaconta-1(27),3,5,7(32),8,12,16(31),17,19(30),24(28),25-undecaen-2-yl]acetic Acid], the IC50 is 5.7 nM and 19.1 nM and 16.8 nM and 10.8 nM. Still for that read-out and setting: the result for `Cc1c2ccc3c1nnn3CCCCCc1ccc(c3c1ccn3C)C(=O)N1CCc3ccc(cc3C1)[C@@H]2CC(=O)O` [Compound 26] reads 0.4 nM and 0.3 nM; that for `Cc1c2ccc3c1nnn3CCCCCCc1ccc(c3c1ccn3C)C(=O)N1CCc3ccc(cc3C1)[C@@H]2CC(=O)O` [Compound 27], 0.4 nM and 0.3 nM.

As to `Cc1c2ccc3c1nnn3CCCCCCc1ccc3c(c1)cc(n3C)C(=O)N1CCc3ccc(cc3C1)[C@@H]2[C@@H](C)C(=O)O` [Compound 28], the IC50 is 0.4 nM and 0.5 nM.

`Cc1c2ccc3c1nnn3CCCCCCc1ccc3c(c1)cc(n3C)C(=O)N1CCc3ccc(cc3C1)[C@H]2[C@@H](C)C(=O)O` [Compound 29]: the IC50 was 192 nM and 103 nM. On the same count and under the same terms, the result for `Cc1c2ccc3c1nnn3CCCCCCc1ccc3c(c1)cc(n3C)C(=O)N1CCc3ccc(cc3C1)[C@H]2[C@H](C)C(=O)O` [Compound 30] reads 103 nM and 159 nM. As to `Cc1c2ccc3c1nnn3CCCCCCc1ccc3c(c1)cc(n3CCC(F)(F)F)C(=O)N1CCc3ccc(cc3C1)[C@@H]2CC(=O)O` [Compound 31], the IC50 was 2.1 nM and 1.2 nM. The same measure, in the same setting: to `Cc1c2ccc3c1nnn3CCCCCCc1ccc(c3ccn(C)c13)C(=O)N1CCc3ccc(cc3C1)[C@@H]2CC(=O)O` [Compound 32] belongs 0.5 nM and 0.6 nM; to `Cc1c2ccc3c1nnn3CCCCCc1ccc(c3ccn(C)c13)C(=O)N1CCc3ccc(cc3C1)[C@@H]2CC(=O)O` [Compound 33], 0.4 nM and 0.3 nM; to `Cc1cc2ccc1C(=O)N1CCc3ccc(cc3C1)C(CC(=O)O)c1ccc3c(nnn3CCCCC2)c1F` (centres unmarked) [Compound 147], 0.4 nM and 0.3 nM. The same measure, in the same setting: to `Cc1nc2ncc1C(CC(=O)O)c1ccc3c(c1)CN(CC3)C(=O)c1c(F)cc(cc1F)OCCCCO2` (centres unmarked) [Compound 197] belongs 164 nM and 148 nM; to `Cc1c2ccc3c1nnn3CCCCCCOc1cnc(nc1)C(=O)N1CCc3ccc(cc3C1)C2CC(=O)O` (centres unmarked) [Compound 198], 0.5 nM and 1.2 nM and 1 nM; to `CC(C)(C(=O)O)[C@H]1c2ccc3c(c2)CN(CC3)C(=O)c2c(F)cc(cc2F)OCCCCCCn2nnc3cc1ccc32` [Compound 235], 0.5 nM and 0.6 nM (2×).

Regarding `Cc1cc2ccc1C(=O)N1CCc3ccc(cc3C1)[C@@H](C(C)(C)C(=O)O)c1ccc3c(c1)nnn3CCCCCCO2` [Compound 237], the IC50 was 22.9 nM and 36.1 nM and 70.2 nM and 28.2 nM and 29.9 nM. On the same count and under the same terms, to `O=C(O)CC1c2ccc3c(c2)CN(CC3)C(=O)c2ccc(cc2)CCCCCn2nnc3c(Cl)c1ccc32` (centres unmarked) [Compound 249] belongs 1.1 nM and 1.3 nM; to `CC(C)(C(=O)O)C1c2ccc3c(c2)CN(CC3)C(=O)c2ccc(cc2F)CCCCCn2nnc3cc1ccc32` (centres unmarked) [Compound 271], 1.9 nM (2×) and 1.7 nM. As for `CC(C)(C(=O)O)C1c2ccc3c(c2)CN(CC3)C(=O)c2ccc(cc2F)CCCCCCn2nnc3cc1ccc32` (centres unmarked) [Compound 281], the IC50 was 0.4 nM (2×) and 0.5 nM (2×) and 1.4 nM and 0.6 nM. Same read-out and setting: the result for `CC(C)(C(=O)O)C1c2ccc3c(c2)CN(CC3)C(=O)c2c(F)cc(cc2F)CCCCCn2nnc3cc1ccc32` (centres unmarked) [Compound 282] reads 0.4 nM (2×) and 0.3 nM (3×) and 1.1 nM; that for `O=C(O)CC1c2ccc(nc2)OCCCCCOc2cccc(c2)C(=O)N2CCc3ccc1cc3C2` (centres unmarked) [Compound 344], 4410 nM and 4850 nM; that for `O=C(O)CC1c2ccc(nc2)OCC/C=C\COc2cccc(c2)C(=O)N2CCc3ccc1cc3C2` (centres unmarked) [Compound 345], 2900 nM and 3360 nM. Still for that read-out and setting: to `Cc1c2ccc3c1nnn3C/C=C/CCc1ccc3c(c1)cc(n3C)C(=O)N1CCc3ccc(cc3C1)[C@H]2[C@H](C)C(=O)O` [Compound 360] belongs 0.9 nM; to `Cc1c2ccc3c1nnn3CCOCCOc1ccc(cc1)C(=O)N1CCc3ccc(cc3C1)C2CC(=O)O` (centres unmarked) [Compound 398], 5.2 nM and 17.3 nM. Same read-out and setting: the result for `O=C(O)CC1c2ccc3c(c2)CN(CC3)S(=O)(=O)c2ccc(cc2)OCCCCCCn2nnc3cc1ccc32` (centres unmarked) [Compound 404] reads 662 nM and 271 nM; that for `O=C(O)C[C@@H]1c2ccc3c(c2)CN(CC3)Cc2ccc(cc2)OCCCCCCn2nnc3cc1ccc32` [Compound 405], 2150 nM and 2050 nM; that for `Cc1c2cccc1C(=O)N1CCc3ccc(cc3C1)C(CC(=O)O)c1ccc3c(nnn3CCCCCO2)c1C` (centres unmarked) [Compound 408], 1.6 nM and 1.5 nM and 13.2 nM and 5 nM. `O=C(O)CC1c2ccc3c(c2)CN(CC3)C(=O)c2cccc(c2)OCCOCCn2nnc3cc1ccc32` (centres unmarked) [Compound 410]: the IC50 is 1050 nM and 1900 nM. On the same count and under the same terms, to `Cc1ccc2cc1C(=O)N1CCc3ccc(cc3C1)[C@H]([C@@H](C)C(=O)O)c1ccc3c(nnn3CCCCCO2)c1C` [Compound 411] belongs 5.2 nM and 10.1 nM. Turning to `O=C(O)CC1c2ccc3c(c2)CN(CC3)C(=O)c2ccc(cc2)OCCOCCn2nnc3cc1ccc32` (centres unmarked) [Compound 412], the IC50 was 28.7 nM and 47.9 nM. On to `Cc1c2ccc3c1nnn3CCOCCOc1cccc(c1)C(=O)N1CCc3ccc(cc3C1)C2CC(=O)O` (centres unmarked) [Compound 414], for which the IC50 was 106 nM and 313 nM. The same measure, in the same setting: to `O=C(O)CC1c2ccc3c(c2)CN(CC3)C(=O)c2cccc(c2)OCCCCc2nnc3cc1ccn23` (centres unmarked) [Compound 415] belongs 13200 nM and 8750 nM. Same read-out and setting: to `O=C(O)CC1c2ccc3c(c2)CN(CC3)C(=O)c2cccc(c2)OCCCCCc2nnc3cc1ccn23` (centres unmarked) [Compound 416] belongs 2420 nM and 348 nM; to `Cc1c2cccc1C(=O)N1CCc3ccc(cc3C1)C(CC(=O)O)c1ccc3c(c1)nnn3CCCCO2` (centres unmarked) [Compound 417], 42.7 nM and 35.2 nM. On the same count and under the same terms, to `Cc1ccc2cc1OC/C=C/CCn1nnc3cc(ccc31)C(CC(=O)O)c1ccc3c(c1)CN(CC3)C2=O` (centres unmarked) [Compound 418] belongs 390 nM and 381 nM; to `Cc1c2cccc1C(=O)N1CCc3ccc(cc3C1)C(CC(=O)O)c1ccc3c(c1)nnn3CCCCCO2` (centres unmarked) [Compound 420], 8.5 nM and 8.3 nM. Regarding `Cc1c2ccc3c1nnn3CCCCCOc1cccc(c1)C(=O)N1CCc3ccc(cc3C1)C2CC(=O)O` (centres unmarked) [Compound 421], the IC50 is 10.1 nM and 8.4 nM. As for `Cc1ccc2cc1C(=O)N1CCc3ccc(cc3C1)C(CC(=O)O)c1ccc3c(c1)nnn3CCCCCO2` (centres unmarked) [Compound 422], the IC50 is 11.3 nM and 12.2 nM. On the same count and under the same terms, to `O=C(O)CC1c2ccc3c(c2)CN(CC3)C(=O)c2ccc(cc2)OC/C=C/CCn2nnc3cc1ccc32` (centres unmarked) [Compound 424] belongs 4.8 nM and 4.7 nM and 2.2 nM and 0.5 nM.

As for `Cc1c2ccc3nn(nc13)CC/C=C/COc1cccc(c1)C(=O)N1CCc3ccc(cc3C1)C2CC(=O)O` (centres unmarked) [Compound 425], the IC50 was 4320 nM and 5390 nM. Same read-out and setting: the result for `Cc1ccc2cc1C(=O)N1CCc3ccc(cc3C1)C(CC(=O)O)c1ccc3c(c1)nnn3CC/C=C/CO2` (centres unmarked) [Compound 426] reads 9.2 nM and 11.6 nM. Same read-out and setting: to `Cc1c2cccc1C(=O)N1CCc3ccc(cc3C1)C(CC(=O)O)c1ccc3c(c1)nnn3CC/C=C/CO2` (centres unmarked) [Compound 427] belongs 9.2 nM and 9.9 nM; to `Cc1ccc2cc1OCCCCn1nnc3cc(ccc31)C(CC(=O)O)c1ccc3c(c1)CN(CC3)C2=O` (centres unmarked) [Compound 428], 1090 nM and 962 nM.
